Experimental data: patent US20240000074A1, “LOW DRIFT, RAINFASTNESS, HIGH SPREADING, HIGH UPTAKE AND ULV TANK MIX ADJUVANT FORMULATION” (BAYER AKTIENGESELLSCHAFT, priority 2020, published 2024)

Test system: Apple leaf cuticles
Assay: Apple cuticle penetration test (SOFU, simulation of foliar uptake)
Format: in vitro ADME
Conditions: Spray volume 650 l/ha; no additives
Excerpt: The cuticle penetration test is a further developed and adapted version of the test method SOFU (simulation of foliar uptake) originally described by Schonherr and Baur (Schonherr, J., Baur, P. (1996), Effects of temperature, surfactants and other adjuvants on rates of uptake of organic compounds. In: The plant cuticle—an integrated functional approach, 134-155. Kerstiens, G. (ed.), BIOS Scientific publisher, Oxford); it is well suited for systematic and mechanistic studies on the effects of formulations, adjuvants and solvents on the penetration of agrochemicals.
Apple leaf cuticles were isolated from leaves taken from trees growing in an orchard as described by Schönherr and Riederer (Schönherr, J., Riederer, M. (1986), Plant cuticles sorb lipophilic compounds during enzymatic isolation. Plant Cell Environ. 9, 459-466). Only the astomatous cuticular membranes of the upper leaf surface lacking stomatal pores were obtained. Discs having diameters of 18 mm were punched out of the leaves and infiltrated with an enzymatic solution of pectinase and cellulase. […] After storage for about four weeks the permeability of the cuticles reaches a constant level and the cuticular membranes are ready for the use in the penetration test. […]
An autosampler took aliquots of the acceptor in regular intervals and the content of active ingredient is determined by HPLC (DAD or MS). […]

Structure (SMILES) | Penetration rate of spirotetramate After 48 hours [%] | Penetration rate of tebuconazole After 24 hours [%]
CCOC(=O)OC1=C(c2cc(C)ccc2C)C(=O)N[C@]12CC[C@@H](OC)CC2 [spirotetramate] | 0 | –
CC(C)(C)C(O)(CCc1ccc(Cl)cc1)Cn1cncn1 (centres unmarked) [tebuconazole] | – | 4
